A short description of data set [1]: pharmacokinetics after intravenous administration to rats. The following applies: in vivo, rat. On the procedure: The above compound is also administered intravenously to rats and found to have a relatively long terminal half life in blood of about 10 hours, with a systemic clearance of about 15 ml/min/kg and a volume of distribution of about 2 l/kg. It appears therefore that the relatively low oral bioavailability of the compound is due to low absorption from the gastrointestinal tract.

Data set [2] is described as follows: oral bioavailability in the rat. The following applies: in vivo, read-out: absolute oral bioavailabilty. On the procedure: The oral bioavailability of a model β-peptide according to the invention, β-HAla-β-HLys-β-HAla-β-HLeu-β-HLys-β-HAla-β-HLeu, TFA salt is determined in the rat using standard procedures. The absolute oral bioavailabilty is found to be about 1%. It is to be expected that greater oral bioavailability may be seeen with other compounds of the invention, having substituents selected to improve this property.

Structures are written as SMILES.

One may read the half-life as the time needed for the level to fall by half in the phase considered. Usually clearance stands for the volume of plasma or blood freed of the substance per unit of time. With `CC(C)C[C@@H](CC(=O)O)NC(=O)C[C@H](C)NC(=O)C[C@H](CCCCN)NC(=O)C[C@H](CC(C)C)NC(=O)C[C@H](C)NC(=O)C[C@H](CCCCN)NC(=O)C[C@H](C)N` [β-HAla-β-HLys-β-HAla-β-HLeu-β-HLys-β-HAla-β-HLeu], the half-life in data set [1] (blood, read-out: terminal half life in blood (converted)) was roughly 10 h. Further, the clearance in data set [1] (read-out: systemic clearance) was roughly 15 mL/min/kg. For the same compound, the Vd in data set [1] (read-out: volume of distribution) was roughly 2 L/kg. For the same compound, the bioavailability in data set [2] is roughly 1%.
